Laboratory results: patent US10045983B2, “Heteroaryl pyridone and aza-pyrodine compounds” (Genentech, Inc., priority 2011, dated 2018)

Assay: CD69 Whole Blood Assay (CD69 Hu Blood FACS)
Assay type: cell-based, human
Settings: Lymphocyte; human whole blood, anti-IgM activated B lymphocytes, FACS; IC70; Table 1; read-out: CD69 Hu Blood FACS IC70
Source text: A CD69 Whole Blood Assay can be conducted on Formula I compounds to determine the ability of compounds to inhibit the production of CD69 by B lymphocytes in human whole blood activated by crosslinking surface IgM with goat F(ab′)2 anti-human IgM (Example 907). CD69 is a type II C-type lectin involved in lymphocyte migration and cytokine secretion. CD69 expression represents one of the earliest available indicators of leukocyte activation and its rapid induction occurs through transcriptional activation (Vazquez et al (2009) Jour. of Immunology Published Oct. 19, 2009, doi:10.4049/jimmunol.0900839). Concentration-dependent inhibition of antigen receptor stimulation by selective Btk inhibitors induces cell surface expression of the lymphocyte activation marker CD69 (Honigberg et al (2010) Proc. Natl. Acad. Sci. 107(29):13075-13080). Thus, CD69 inhibition by selective Btk inhibitors may be correlated with therapeutic efficacy of certain B-cell disorders.

Compound | IC70
Cn1cc(-c2ccnc(N3CCn4c(cc5c4CCCC5)C3=O)c2CO)cc(Nc2cc3n(n2)CCOC3)c1=O [Example 129, 2-(4-(5-(6,7-Dihydro-4H-pyrazolo[5,1-c][1,4]oxazin-2-ylamino)-1-methyl-6-oxo-1,6-dihydropyridin-3-yl)-3-(hydroxymethyl)pyridin-2-yl)-3,4,6,7,8,9-hexahydropyrazino[1,2-a]indol-1(2H)-one] | 91.7 nM
C[C@H]1CN(C2COC2)CCN1c1ccc(Nc2cc(-c3ccnc(N4CCn5c(cc6c5CC(C)(C)C6)C4=O)c3CO)cn(C)c2=O)nc1 [Example 130, (3 S)-10-[4-[1-methyl-5-({5-[2-methyl 4-(oxetan-3-yl)piperazin-1-yl]pyridine-2-yl}amino)-6-oxo-1,6-dihydropyridin-3-yl]-3-(hydroxymethyl)pyridin-2-yl]-4,4-dimethyl-1,10-diazatricyclo[6.4.0.0^2,6]dodeca-2(6),7-dien-9-one] | 12 nM
CC[C@H]1CN(C2COC2)CCN1c1ccc(Nc2cc(-c3ccnc(N4CCn5c(cc6c5CCCC6)C4=O)c3CO)cn(C)c2=O)nc1 [Example 131, (S)-2-(4-(5-(5-(2-ethyl-4-(oxetan-3-yl)piperazin-1-yl)pyridin-2-ylamino)-1-methyl-6-oxo-1,6-dihydropyridin-3-yl)-3-(hydroxymethyl)pyridin-2-yl)-3,4,6,7,8,9-hexahydropyrazino[1,2-a]indol-1(2H)-one] | 15.5 nM
Cn1nc(-c2ccnc(N3CCn4c(cc5c4CCCC5)C3=O)c2CO)cc(Nc2cc3n(n2)CCOC3)c1=O [Example 132, 2-(4-(5-(6,7-Dihydro-4H-pyrazolo[5,1-c][1,4]oxazin-2-ylamino)-1-methyl-6-oxo-1,6-dihydropyridazin-3-yl)-3-(hydroxymethyl)pyridin-2-yl)-3,4,6,7,8,9-hexahydropyrazino[1,2-a]indol-1(2H)-one] | 263 nM
CN1CCn2nc(Nc3cc(-c4ccnc(N5CCn6c(cc7c6CCCC7)C5=O)c4CO)nn(C)c3=O)cc2C1 [Example 133, 2-(3-(Hydroxymethyl)-4-(1-methyl-5-(5-methyl-4,5,6,7-tetrahydropyrazolo[1,5-a]pyrazin-2-ylamino)-6-oxo-1,6-dihydropyridazin-3-yl)pyridin-2-yl)-3,4,6,7,8,9-hexahydropyrazino[1,2-a]indol-1(2H)-one] | 227 nM
Cn1cc(-c2ccnc(N3CCn4c5c(c(F)c4C3=O)CCCC5)c2CO)cc(Nc2ccc(N3CCN(C4COC4)CC3)cn2)c1=O [Example 134, 10-Fluoro-2-(3-(hydroxymethyl)-4-(1-methyl-5-(5-(4-(oxetan-3-yl)piperazin-1-yl)pyridin-2-ylamino)-6-oxo-1,6-dihydropyridin-3-yl)pyridin-2-yl)-3,4,6,7,8,9-hexahydropyrazino[1,2-a]indol-1(2H)-one] | 94.4 nM
CN1CCn2nc(Nc3cc(-c4ccnc(N5CCn6c7c(c(F)c6C5=O)CCCC7)c4CO)cn(C)c3=O)cc2C1 [Example 135, 10-Fluoro-2-(3-(hydroxymethyl)-4-(1-methyl-5-(5-methyl-4,5,6,7-tetrahydropyrazolo[1,5-a]pyrazin-2-ylamino)-6-oxo-1,6-dihydropyridin-3-yl)pyridin-2-yl)-3,4,6,7,8,9-hexahydropyrazino[1,2-a]indol-1(2H)-one] | 107 nM
C[C@H]1CN(C2COC2)CCN1c1ccc(Nc2cc(-c3ccnc(N4CCn5c6c(c(F)c5C4=O)CCCC6)c3CO)cn(C)c2=O)nc1 [Example 136, (S)-10-Fluoro-2-(3-(hydroxymethyl)-4-(1-methyl-5-(5-(2-methyl-4-(oxetan-3-yl)piperazin-1-yl)pyridin-2-ylamino)-6-oxo-1,6-dihydropyridin-3-yl)pyridin-2-yl)-3,4,6,7,8,9-hexahydropyrazino[1,2-a]indol-1(2H)-one] | 30 nM
C[C@@H]1CN(C2COC2)CCN1c1ccc(Nc2cc(-c3ccnc(N4CCn5c(cc6c5CCCC6)C4=O)c3CO)cn(C)c2=O)nc1 [Example 137, (R)-2-(3-(hydroxymethyl)-4-(1-methyl-5-(5-(2-methyl-4-(oxetan-3-yl)piperazin-1-yl)pyridin-2-ylamino)-6-oxo-1,6-dihydropyridin-3-yl)pyridin-2-yl)-3,4,6,7,8,9-hexa-hydropyrazino[1,2-a]indol-1(2H)-one] | 64.6 nM
CN1CCn2nc(Nc3cc(-c4cncc(N5CCn6c(cc7c6CCCC7)C5=O)c4CO)cn(C)c3=O)cc2C1 [Example 138, 2-(4-(Hydroxymethyl)-5-(1-methyl-5-(5-methyl-4,5,6,7-tetrahydropyrazolo[1,5-a]pyrazin-2-ylamino)-6-oxo-1,6-dihydropyridin-3-yl)pyridin-3-yl)-3,4,6,7,8,9-hexahydropyrazino[1,2-a]indol-1(2H)-one] | 353 nM
Cn1cc(-c2ccnc(N3CCc4c(cc5n4CCCC5)C3=O)c2CO)cc(Nc2ccc(N3CCN(C4COC4)CC3)cn2)c1=O [Example 139, 2-(3-(Hydroxymethyl)-4-(1-methyl-5-(5-(4-(oxetan-3-yl)piperazin-1-yl)pyridine-2-ylamino)-6-oxo-1,6-dihydropyridin-3-yl)pyridin-2-yl)-3,4,6,7,8,9-hexahydropyrido[3,4-b]indolizin-1(2H)-one] | 326 nM
C[C@H]1CN(C2COC2)CCN1c1ccc(Nc2cc(-c3ccnc(N4CCn5c(cc6c5CC(F)(F)CC6)C4=O)c3CO)cn(C)c2=O)nc1 [Example 140, (S)-7,7-Difluoro-2-(3-(hydroxymethyl)-4-(1-methyl-5-(5-(2-methyl-4-(oxetan-3-yl)piperazin-1-yl)pyridin-2-ylamino)-6-oxo-1,6-dihydropyridin-3-yl)pyridin-2-yl)-3,4,6,7,8,9-hexahydropyrazino[1,2-a]indol-1(2H)-one] | 308 nM
CN1CCn2nc(Nc3cc(-c4ccnc(N5CCn6c(cc7c6CC(C)(C)C7)C5=O)c4CO)cn(C)c3=O)cc2C1 [Example 141, 2-[3′-Hydroxymethyl-1-methyl-5-(5-methyl-4,5,6,7-tetrahydro-pyrazolo[1,5-a]pyrazin-2-ylamino)-6-oxo-1,6-dihydro-[3,4′]bipyridinyl-2′-yl]-7,7-dimethyl-3,4,7,8-tetrahydro-2H,6H-cyclopenta[4,5]pyrrolo[1,2-a]pyrazin-1-one] | 26.6 nM
Cn1cc(-c2ccnc(N3CCn4c(cc5c4CCCC5)C3=O)c2CO)cc(Nc2ccncn2)c1=O [Example 142, 2-[3′-Hydroxymethyl-1-methyl-6-oxo-5-(pyrimidin-4-ylamino)-1,6-dihydro-[3,4′]bipyridinyl-2′-yl]-3,4,6,7,8,9-hexahydro-2H-pyrazino[1,2-a]indol-1-one] | 2100 nM
Cn1cc(-c2ccnc(N3CCc4c(sc5c4CC(C)(C)C5)C3=O)c2CO)cc(Nc2ccncn2)c1=O [Example 143, 6-[3′-Hydroxymethyl-1-methyl-6-oxo-5-(pyrimidin-4-ylamino)-1,6-dihydro-[3,4′]bipyridinyl-2′-yl]-2,2-dimethyl-2,3,5,6-tetrahydro-1H,4H-8-thia-6-aza-cyclopenta[a]inden-7-one] | 30.9 nM
Cn1cc(-c2ccnc(N3CCn4c(cc5c4CC(C)(C)C5)C3=O)c2CO)cc(Nc2ccncn2)c1=O [Example 144, 2-[3′-Hydroxymethyl-1-methyl-6-oxo-5-(pyrimidin-4-ylamino)-1,6-dihydro-[3,4′]bipyridinyl-2′-yl]-7,7-dimethyl-3,4,7,8-tetrahydro-2H,6H-cyclopenta-[4,5]pyrrolo[1,2-a]pyrazin-1-one] | 106 nM
C[C@H]1CN(C2COC2)CCN1c1ccc(Nc2cc(-c3ccnc(N4CCc5c(sc6c5CC(C)(C)C6)C4=O)c3CO)cn(C)c2=O)nc1 [Example 145, 6-{3′-Hydroxymethyl-1-methyl-5-[5-((S)-2-methyl-4-oxetan-3-yl-piperazin-1-yl)-pyridin-2-ylamino]-6-oxo-1,6-dihydro-[3,4′]bipyridinyl-2′-yl}-2,2-dimethyl-2,3,5,6-tetrahydro-1H,4H-8-thia-6-aza-cyclopenta[a]inden-7-one] | 14.7 nM
Cn1cc(-c2ccnc(N3CCn4c5c(c(F)c4C3=O)CCCC5)c2CO)cc(Nc2ccncn2)c1=O [Example 146, 10-Fluoro-2-(3-(hydroxymethyl)-4-(1-methyl-6-oxo-5-(pyrimidin-4-ylamino)-1,6-dihydropyridin-3-yl)pyridin-2-yl)-3,4,6,7,8,9-hexahydropyrazino[1,2-a]indol-1(2H)-one] | 85.6 nM
CN1CCn2nc(Nc3cc(-c4ccnc(N5CCc6c(cc7n6CCCC7)C5=O)c4CO)cn(C)c3=O)cc2C1 [Example 147, 2-(3-(Hydroxymethyl)-4-(1-methyl-5-(5-methyl-4,5,6,7-tetrahydro-pyrazolo[1,5-a]pyrazin-2-ylamino)-6-oxo-1,6-dihydropyridin-3-yl)pyridin-2-yl)-3,4,6,7,8,9-hexahydropyrido[3,4-b]indolizin-1(2H)-one] | 320 nM
C[C@H]1CN(C2COC2)CCN1c1ccc(Nc2cc(-c3ccnc(N4CCn5c(cc6c5CCCC6)C4=O)c3C3(O)COC3)cn(C)c2=O)nc1 [Example 148, (S)-2-(3-(3-Hydroxyoxetan-3-yl)-4-(1-methyl-5-(5-(2-methyl-4-(oxetan-3-yl)piperazin-1-yl)pyridin-2-ylamino)-6-oxo-1,6-dihydropyridin-3-yl)pyridin-2-yl)-3,4,6,7,8,9-hexahydropyrazino[1,2-a]indol-1(2H)-one] | 5000 nM
C[C@H]1CN(C2COC2)CCN1c1ccc(Nc2cc(-c3ccnc(N4CCc5c(cc6n5CCCC6)C4=O)c3CO)cn(C)c2=O)nc1 [Example 149, 2-{3′-Hydroxymethyl-1-methyl-5-[5-((S)-2-methyl-4-oxetan-3-yl-piperazin-1-yl)-pyridin-2-ylamino]-6-oxo-1,6-dihydro-[3,4′]bipyridinyl-2′-yl}-2,3,5,6,7,8-hexahydro-4H-2,4b-diaza-fluoren-1-one] | 45.4 nM
